Measurements from patent US5846720A, “Methods of determining chemicals that modulate expression of genes associated with cardiovascular disease” (Oncogene Science, Inc., priority 1996, dated 1998).

Key:
FRE cells = assay: MTT respiratory inhibition cytotoxicity assay versus luciferase induction in G21; assay type: cell-based; conditions: G21 reporter cells vs FRE cells, 6 hours
Description: To determine cytotoxic concentrations of chemicals registering as positives in the high throughput luciferase assay the MTT cytotoxicity assay was employed (82). In this assay, a tetrazolium salt [3-(4,5-dimethylthiazol-2-yl)-2,5-diphenyl -tetrazolium bromide, MTT] is reduced to a colored formazon product by reducing enzymes present only in living metabolically active cells.
To address the question whether the induction of G-CSF, and GM-CSF transcription by the compound #542 was a specific effect or rather a phenomenon linked to a potential sensitivity of these promoters to stress exerted by toxic compounds, the concentration dependency of induction of luciferase activity in the reporter cell line G21 was compared to the concentration dependency of inhibition of respiration in FRE cells. Cells were seeded into 96 well microtiter plates (20,000 cells/well) and cultured overnight. Compound #542 was added at various concentrations and the cells were incubated for 6 hours. Luciferase activity was determined as described above. The MTT-colorimetric assay was carried out on identically treated samples of FRE cells. Induction of luciferase reporter signal (plain line) and on inhibition of respiration (dashed line) are plotted versus the concentrations of compound (FIG. 40). […]

GM-CSF mRNA = assay: S1 nuclease protection, GM-CSF mRNA; assay type: cell-based, human; conditions: 5637 cells, 18 hours
Procedure: (§1) S1 Nuclease protection assays were carried out as described in reference 118.
(§2) To further confirm, that compounds that had been identified in a luciferase expression assay using a G-CSF specific reporter cell line would be active in inducing transcription of the endogenous G-CSF gene, cells from the parental cell line 5637 used to construct the reporter cell line were incubated with cycloheximide (25 ug/ml), DMSO (0.5%,solvent control) and low, medium and high concentrations of the compounds 542 (10, 50, 250 μM),1255 (20, 100, 500 uM), 1793(0.25, 1.2, 6.25 μM) and 1904 (20, 100 uM) for 18 hours. RNA was extracted and the concentration of G-CSF, GM-CSF and gamma-actin mRNA was determined by the S1 protection method as described in above. The positions of G-CSF GM-CSF and gamma-actin specific protected fragments are indicated (G, GM, A) at the left side of the gel (FIG. 37).

G-CSF mRNA = assay: S1 nuclease protection, G-CSF mRNA; assay type: cell-based, human
Procedure: as §1, §2

[1] = test system: 5637 bladder carcinoma cells; assay: G-CSF secretion, two-antibody sandwich immunoassay; assay type: cell-based, human; conditions: 48 hours, serum-containing media
Procedure: Supernatants from 5637 bladder carcinoma cells incubated with chemicals registering as positives in the G-CSF promoter/luciferase high throughput assay were assayed for secreted G-CSF protein using the two-antibody sandwich immunoassay (83). The G-CSF Assay kit manufactured by Oncogene Science, Inc. was used and the manufacturer's instructions were followed.
The levels of G-CSF in the cell supernatants were determined by a sandwich-antibody assay as described in above (FIG. 42).

In the case of `Nc1nc(=O)n([C@H]2C[C@H](O)[C@@H](CO)O2)cc1Br` [#542], the “factor between ED50 for induction of luciferase activity and ED50 for inhibition of respiration” value (FRE cells) is reported as about 10 factor, the “amount of GM-CSF mRNA (S1 nuclease protection)” value (GM-CSF mRNA) is reported as “increased the amount of GM-CSF mRNA” and the “amount of G-CSF mRNA (S1 nuclease protection)” value (G-CSF mRNA; 5637 cells, 18 hours) is reported as “increased mRNA production”. For the same compound, the “levels of endogenous G-CSF mRNA” value (G-CSF mRNA; method not stated at the place) was “stimulate levels of endogenous G-CSF mRNA” and the G-CSF secretion [1] was “increased G-CSF secretion”.
